Here are results for seven compounds from patent US20240124406A1, “INHIBITORS OF TRANSCRIPTIONAL ENHANCED ASSOCIATE DOMAIN (TEAD) AND USES THEREOF” (Dana-Farber Cancer Institute, Inc., priority 2020, published 2024).

In this assay the test system is NCI-H226 cells. Description: Antiproliferation assay (2D adherent cell viability, CellTiter-Glo). It is filed as cell-based. Particulars: Homo sapiens, 120 h, 5 days treatment, cell viability by CellTiter-Glo. On the procedure:
The compounds were evaluated in vitro. In addition, an anti-proliferation assay was performed using NCI-H226 cells (FIG. 2).
The mixture of 2-fluoro-5-nitrobenzonitrile (1 g, 6.0 mmol), cyclohexanamine (0.6For 2D adherent cell viability experiment, the cells were seeded at 384-well plate (Corning, no. 3570) at the density of 200 cells/well. The next day, compounds were added using Janus workstation (PerkinElmer). After 5 days treatment, the cell viability was measured by CellTiter-Glo kit (Promega, no. G7570) as the manufacturer recommended.
(In ATP-based viability assays light output follows the ATP content of the culture.)

By IC50 is commonly meant the concentration that gives 50% inhibition. Read a high IC50 as a need for much substance.

Structures are written as SMILES.

Compound `C=CC(=O)Nc1ccc(Nc2ccc(C(F)(F)F)cc2)c(-c2nccc(OCCO)n2)c1` [Compound A-11, N-(3-(4-(2-hydroxyethoxy)pyrimidin-2-yl)-4-(4-(trifluoromethyl)phenylamino)phenyl)acrylamide] registered an IC50 of 40 nM. That is a double-digit nanomolar value.

Turning to `C=CC(=O)Nc1ccc(NC2CCC(F)(F)CC2)c(-c2ncccn2)c1` [Compound A-5, N-(4-(4,4-difluorocyclohexylamino)-3-(pyrimidin-2-yl)phenyl)acrylamide], the IC50 was found to be 8 nM.

Compound `C=CC(=O)Nc1ccc(Nc2ccc(C(F)(F)F)cc2)c(-c2cc[nH]c(=O)c2)c1` [Compound A-14, N-(3-(2-oxo-1,2-dihydropyridin-4-yl)-4-(4-(trifluoromethyl)phenylamino)phenyl)acrylamide] returned a 50% inhibitory concentration (IC50) of 1100 nM. The compound `C=CC(=O)Nc1ccc(Nc2ccc(C(F)(F)F)cc2)c(-c2nccc(N3CCC(O)C3)n2)c1` (stereo not shown) [Compound A-7, N-(3-(4-(3-hydroxypyrrolidin-1-yl)pyrimidin-2-yl)-4-(4-(trifluoromethyl)phenylamino)phenyl)acrylamide] gave an IC50 of 17 nM. This IC50 is about 65-fold lower than that of the compound before. For `C=CC(=O)Nc1cnc(Oc2ccc(C(F)(F)F)cc2)c(-c2ncccn2)c1` [Compound A-12, N-(5-(pyrimidin-2-yl)-6-(4-(trifluoromethyl)phenoxy)pyridin-3-yl)acrylamide] the value was 14 nM; for `C=CC(=O)Nc1ccc(Nc2ccc(C(F)(F)F)cc2)c(-c2cccnn2)c1` [Compound A-13, N-(3-(pyridazin-3-yl)-4-(4-(trifluoromethyl)phenylamino)phenyl) acrylamide], 31 nM. Under `C=CC(=O)Nc1ccc(Nc2ccc(C(F)(F)F)cc2)c(-c2ncccn2)c1` [Compound A-21, N-(3-(pyrimidin-2-yl)-4-(4-(trifluoromethyl)phenylamino)phenyl) Acrylamide] stands 4 nM.
